Assay results: article PMC4444084, “An Antioxidant Extract of the Insectivorous Plant Drosera burmannii Vahl. Alleviates Iron-Induced Oxidative Stress and Hepatic Injury in Mice” (PLoS ONE, 2015)
Values after ≈ are worked out from the molar mass of the structure shown. Values joined by “and” are separate entries in the source; they are usually repeats but may differ in a detail not shown here. Equal values may be shown once. Marks after values point to notes of the source that are not given here. Each block holds one molecule with its values, some of them ahead of it.

What was measured:
Peroxynitrite scavenging = format: biochemical
Protocol: The RNS scavenging activity of DBME was determined using nitric oxide and peroxynitrite radical scavenging assays.

iron overloaded mice [1] = experiment: Serum markers (ALAT, ASAT, ALP, bilirubin) in iron overloaded mice; format: in vivo, Swiss albino mice; settings: D: desirox 20 mg/kg b.w. oral 21 days
Protocol: (§1) Mice were divided into six groups of six mice each. One group was labeled as blank (B) and received normal saline. The other five groups received five intraperitoneal injections of iron-dextran at a dose of 100 mg/kg b.w. (one dose every two days). One iron-dextran group (C) was administered normal saline, and the other four groups were orally treated with either 50 mg/kg b.w. (S50), 100 mg/kg b.w. (S100), 200 mg/kg b.w. (S200) DBME or 20 mg/kg b.w. desirox (D) for 21 days beginning on the day following the first iron-dextran injection.
(§2) After treatment, mice were fasted overnight on the 21st day and anesthetized with ethyl ether. Blood was collected by cardiac puncture. Serum from the blood samples was separated using a cooling centrifuge and stored at -80°C until analysis. The liver was washed with ice-cold saline and divided into three parts. One major portion of the liver was cut, weighed and homogenized in 10 volumes of 0.1 M phosphate buffer (pH 7.4) containing 5 mM EDTA and 0.15 M NaCl. The sample was centrifuged at 8,000 g for 30 min at 4°C. The protein concentration in the supernatant was estimated according to Lowry's method using BSA as a standard. The remaining samples were stored at -80°C until further analysis. Another portion of the liver was weighed and digested using an equivolume mixture of sulfuric acid and nitric acid for iron content analysis. A final liver sample was used for histopathological studies.
Alanine amino transferase (ALAT), aspartate amino transferase (ASAT), and bilirubin levels were measured in serum samples using commercial kits from Merck, Mumbai, India. Serum alkaline phosphatase (ALP) was estimated using a kit supplied by Sentinel diagnostics, Italy. The serum ferritin level was measured using an enzyme-linked immunosorbent assay (Monobind Inc., USA) according to the manufacturer’s instructions.

iron overloaded mice [2] = experiment: Liver antioxidants (SOD, CAT, GST, GSH) in iron overloaded mice; format: in vivo, Swiss albino mice; settings: D: desirox 20 mg/kg b.w. oral 21 days
Protocol: as §1, §2
Superoxide dismutase (SOD), catalase (CAT) activity, glutathione-S-transferase (GST) and reduced glutathione (GSH) levels were assayed according to previously reported methods.

[3] = Iron chelation assay (Fe2+-ferrozine complex formation); format: biochemical; settings: for Iron chelating activity IC50: Fe2+-ferrozine, HEPES pH 7.2; for in vitro iron chelation ability (in words): Fe2+-ferrozine complex
Protocol: The Fe^2+ chelating activity of DBME, catechin, methyl gallate, purpurin, reserpine, rutin and tannic acid was evaluated according to standard methods. HEPES buffer (20 mM, pH 7.2), DBME (0–120 μg/ml) and a positive control EDTA (0–20 μg/ml) were separately added to a 12.5 μM ferrous sulfate solution, and 75 μM ferrozine was added to start the reaction. The mixture was shaken vigorously and left standing for 20 min at room temperature. Next, the absorbance was measured at 562 nm. All tests were performed six times.

WST-1 cytotoxicity assay = format: cell-based, human; settings: human, WI-38 human lung fibroblast cells, WI-38 cells, WST-1
Protocol: (§3) The human lung fibroblast (WI-38) cell line was purchased from the National Centre for Cell Science (NCCS), India. Cells were grown in DMEM supplemented with 10% (v/v) fetal bovine serum (FBS), 100 U/ml penicillin G, 50 μg/ml gentamycin sulfate, 100 μg/ml streptomycin and 2.5 μg/ml amphotericin B. The cell line was maintained in a CO2 incubator at 37°C in a humidified atmosphere containing 5% CO2. Cell proliferation and cell viability were quantified using the WST-1 Cell Proliferation Reagent, Roche diagnostics, according to previously described methods. […] Briefly, WI-38 cells (1 × 10^4 cells/well) were treated with DBME, purpurin, catechin, tannic acid, reserpine, methyl gallate or rutin at doses ranging from 0–120 μg/ml for 48 hours in 96-well culture plates. After treatment, 10 μl of the WST-1 cell proliferation reagent was added to each well followed by 2 hours of incubation at 37°C. Cell proliferation and viability were quantified by measuring the absorbance at 460 nm using a microplate ELISA reader […] EX (Thermo Electron Corporation, USA).

WI-38 cells = experiment: WST-1 cytotoxicity assay; format: cell-based, human; settings: 48 hours; for cytotoxicity against normal cells (in words): 0-120 μg/ml; for Cytotoxicity assay IC50: WST-1
Protocol: as §3

[4] = Superoxide anion scavenging; format: biochemical
Protocol: (§4) The ROS scavenging ability of DBME was determined using multiple stable ROS radical scavenging assays, such as hydroxyl, superoxide, hypochlorous radical, singlet oxygen and hydrogen peroxide assays by standard procedures.

[5] = DPPH radical scavenging assay; format: biochemical
Protocol: The total antioxidant capacity of DBME was evaluated by an ABTS•^+ radical cation decolorization assay in comparison to a trolox standard and 2,2-diphenyl-1-picrylhydrazyl (DPPH) radical scavenging assay. The reducing power of DBME was determined using a previously described method.

[6] = Hypochlorous acid scavenging; format: biochemical
Protocol: as §4

[7] = Singlet oxygen scavenging; format: biochemical
Protocol: as §4

[8] = Hydrogen peroxide scavenging; format: biochemical
Protocol: as §4

[9] = Hydroxyl radical scavenging; format: biochemical
Protocol: as §4

Iron chelating activity IC50 [3]: 3095.13 ± 438.00 µg/mL
Molecule: COC(=O)[C@H]1[C@H]2C[C@@H]3c4[nH]c5cc(OC)ccc5c4CCN3C[C@H]2C[C@@H](OC(=O)c2cc(OC)c(OC)c(OC)c2)[C@@H]1OC [Reserpine, reserpine]
in vitro iron chelation ability (in words) [3]: failed to chelate iron
IC50 at 48 h (WST-1 cytotoxicity assay): 44.8 ± 2.06 µg/mL (≈ 73.6 µM)
cytotoxicity against normal cells (in words) (WI-38 cells): most toxic compound

Iron chelating activity IC50 [3]: 1940.22 ± 179.61 µg/mL
Molecule: Oc1cc(O)c2c(c1)OC(c1ccc(O)c(O)c1)C(O)C2 (single isomer, unassigned; (+)) [Catechin, (+) catechin]
in vitro iron chelation ability (in words) [3]: failed to chelate iron
Cytotoxicity assay IC50 (WI-38 cells): 753.56 ± 31.99 µg/mL

Superoxide anion scavenging IC50 [4]: 42.06 ± 1.35 µg/mL
Molecule: O=c1c(O)c(-c2ccc(O)c(O)c2)oc2cc(O)cc(O)c12 [Quercetin, quercetin]

Iron chelating activity IC50 [3]: 50.22 ± 0.85 µg/mL
Molecule: tannic acid
in vitro iron chelation ability (in words) [3]: most effective chelator
Cytotoxicity assay IC50 (WI-38 cells): 581.03 ± 64.97 µg/mL

DPPH IC50 [5]: 5.29 ± 0.28 µg/mL
Hypochlorous acid (HOCl) scavenging IC50 [6]: 235.96 ± 5.75 µg/mL
Molecule: O=C1O[C@H]([C@@H](O)CO)C(O)=C1O [Ascorbic acid, ascorbic acid]

Iron chelating activity IC50 [3]: 70.86 ± 1.20 µg/mL
Molecule: COC(=O)c1cc(O)c(O)c(O)c1 [Methyl gallate, methyl gallate]
IC50 at 48 h (WST-1 cytotoxicity assay): 344 ± 31.3 µg/mL (≈ 1870 µM)

Singlet oxygen scavenging IC50 [7]: 46.16 ± 1.16 µg/mL
Molecule: O=C(O)CCCC[C@@H]1CCSS1 (racemic) [Lipoic acid, lipoic acid]

Second part, the molecule before the results:

Molecule: O=C(O)c1cc(O)c(O)c(O)c1 [Gallic acid, gallic acid]
Peroxynitrite (ONOO-) scavenging IC50 (Peroxynitrite scavenging): 876 ± 570 µg/mL

Molecule: O=C(O)c1ccc(-n2nc(-c3ccccc3O)nc2-c2ccccc2O)cc1 [D, desirox]
ALAT % Change (iron overloaded mice [1]; change vs B group): 52.79%
ALP % Change (iron overloaded mice [1]; change vs B group): 84.44%
ASAT % Change (iron overloaded mice [1]; change vs B group): 17.36%
Bilirubin % Change (iron overloaded mice [1]; change vs B group): 10.97%
ALAT (iron overloaded mice [1]; iron overloaded mice): 23.29 ± 1.09 ^c ^f Unit/l and 23.29 ± 1.09^cf Unit/l
ALP (iron overloaded mice [1]; iron overloaded mice): 61.01 ± 2.44 ^c ^f Unit/l and 61.01 ± 2.44^cf Unit/l
ASAT (iron overloaded mice [1]; iron overloaded mice): 79.35 ± 4.36 ^a ^f Unit/l and 79.35 ± 4.36^af Unit/l
Bilirubin (iron overloaded mice [1]; iron overloaded mice): 1.68 ± 0.15 ^f mg/dl
CAT % Change (iron overloaded mice [2]; change vs B group): 26.09%
GSH % Change (iron overloaded mice [2]; change vs B group): 5.13%
GST % Change (iron overloaded mice [2]; change vs B group): 35.42%
SOD % Change (iron overloaded mice [2]; change vs B group): 15.31%
CAT (iron overloaded mice [2]; iron overloaded mice): 16.14 ± 3.87 ^c ^f Unit/mg protein and 16.14 ± 3.87^cf Unit/mg protein
GSH (iron overloaded mice [2]; iron overloaded mice): 0.48 ± 0.02 ^a ^f μg/mg protein and 0.48 ± 0.02^af μg/mg protein
GST (iron overloaded mice [2]; iron overloaded mice): 3.72 ± 0.36 ^c ^f Unit/mg protein and 3.72 ± 0.36^cf Unit/mg protein
SOD (iron overloaded mice [2]; iron overloaded mice): 0.47 ± 0.05 ^a ^f Unit/mg protein and 0.47 ± 0.05^af Unit/mg protein

Molecule: O=C1c2ccccc2C(=O)c2c(O)c(O)cc(O)c21 [Purpurin, purpurin]
Iron chelating activity IC50 [3]: 252.37 ± 4.08 µg/mL
IC50 at 48 h (WST-1 cytotoxicity assay): 1470 ± 291 µg/mL (≈ 5730 µM)
cytotoxicity against normal cells (in words) (WI-38 cells): negligible cytotoxicity

Molecule: O=C(O)CN(CCN(CC(=O)O)CC(=O)O)CC(=O)O [EDTA, Ethylenediamine tetraacetic acid]
Iron chelating activity IC50 [3]: 1.27 ± 0.05 µg/mL

Molecule: CC(=O)C(=O)[O-].[Na+] [Sodium pyruvate, sodium pyruvate]
Hydrogen peroxide (H2O2) scavenging IC50 [8]: 3240 ± 300 µg/mL

Molecule: C[C@@H]1O[C@@H](OC[C@H]2O[C@@H](Oc3c(-c4ccc(O)c(O)c4)oc4cc(O)cc(O)c4c3=O)[C@H](O)[C@@H](O)[C@@H]2O)[C@H](O)[C@H](O)[C@H]1O [Rutin, rutin]
IC50 at 48 h (WST-1 cytotoxicity assay): 1230 ± 195 µg/mL (≈ 2020 µM)
cytotoxicity against normal cells (in words) (WI-38 cells): negligible cytotoxicity

Molecule: OC[C@@H](O)[C@@H](O)[C@H](O)[C@H](O)CO [Mannitol, mannitol]
Hydroxyl radical (OH) scavenging IC50 [9]: 571.45 ± 20.12 µg/mL
